25 molecules from patent US9133158B2, “Bicyclic dihydroisoquinoline-1-one derivatives” (Hoffmann-La Roche Inc., priority 2011, dated 2015) can be followed below.

One assay deals with T1, human CYP11B1 (Homo sapiens, UniProt P15538).
T1 construct: expressed in transfected cells
T1 sequence (P15538 25-503): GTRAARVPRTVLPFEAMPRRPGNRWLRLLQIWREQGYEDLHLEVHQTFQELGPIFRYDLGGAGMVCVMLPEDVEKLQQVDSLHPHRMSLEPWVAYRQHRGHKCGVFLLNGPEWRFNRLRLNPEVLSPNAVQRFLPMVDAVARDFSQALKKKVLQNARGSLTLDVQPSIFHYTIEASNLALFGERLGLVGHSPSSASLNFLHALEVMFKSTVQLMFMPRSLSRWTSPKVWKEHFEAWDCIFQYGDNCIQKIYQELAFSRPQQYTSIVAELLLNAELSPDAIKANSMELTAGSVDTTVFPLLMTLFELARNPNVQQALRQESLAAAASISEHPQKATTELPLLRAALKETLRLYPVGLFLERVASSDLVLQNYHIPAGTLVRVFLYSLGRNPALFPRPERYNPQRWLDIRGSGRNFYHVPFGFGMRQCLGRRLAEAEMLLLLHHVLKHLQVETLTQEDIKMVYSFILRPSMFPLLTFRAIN
Description: G-402 cellular enzyme assay, human CYP11B1 (cortisol release, HTRF). The format is cell-based. Conditions: G-402 cells, 1 μM Deoxycortisol. The gist of the method:
(§1)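 Stable G-402 transfectants; 16 h incubation with inhibitor plus substrate — CYP11B2: 1 μM deoxycorticosterone, aldosterone read; CYP11B1: 1 μM deoxycortisol, cortisol read. HTRF on supernatant. Medium DMEM/F12, 2.5% charcoal FCS. EC50 via MMF sigmoidal fit.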
On the technique in general: Time-resolved FRET reads energy transfer from a long-lived donor to a nearby acceptor.

The next assay addresses T2, human CYP11B2 (Homo sapiens, UniProt P19099).
T2 construct: expressed in transfected cells
T2 sequence (P19099 25-503): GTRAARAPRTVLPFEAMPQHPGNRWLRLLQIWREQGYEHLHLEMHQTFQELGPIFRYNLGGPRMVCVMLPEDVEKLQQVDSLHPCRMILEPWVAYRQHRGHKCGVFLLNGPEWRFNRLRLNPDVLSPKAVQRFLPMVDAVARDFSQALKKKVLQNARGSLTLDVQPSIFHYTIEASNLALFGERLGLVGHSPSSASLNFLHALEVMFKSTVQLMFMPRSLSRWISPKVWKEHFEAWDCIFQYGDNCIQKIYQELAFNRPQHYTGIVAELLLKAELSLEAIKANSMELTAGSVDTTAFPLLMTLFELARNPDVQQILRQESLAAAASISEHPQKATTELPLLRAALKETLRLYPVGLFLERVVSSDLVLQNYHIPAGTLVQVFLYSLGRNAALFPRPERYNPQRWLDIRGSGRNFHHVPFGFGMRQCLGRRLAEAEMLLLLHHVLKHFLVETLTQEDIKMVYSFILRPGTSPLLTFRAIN
Description: G-402 cellular enzyme assay, human CYP11B2 (aldosterone release, HTRF). The format is cell-based. Conditions: G-402 cells, 1 μM Deoxycorticosterone. The gist of the method: as §1

SMILES strings stand for the structures.

Turning to `CC(=O)NCc1cncc(N2CCc3cc(Cl)ccc3C2=O)c1` [Example 153, N-[5-(6-Chloro-1-oxo-3,4-dihydro-1H-isoquinolin-2-yl)-pyridin-3-ylmethyl]-acetamide], the 50% effective concentration (EC50) at human CYP11B1 was determined as 15 µM; at human CYP11B2, 0.302 µM.
The matching figures for `O=C1c2ccc(Cl)cc2CCN1c1cncc(C(O)C(F)(F)F)c1` (centres unmarked) [Example 18, 6-Chloro-2-[5-(2,2,2-trifluoro-1-hydroxy-ethyl)-pyridin-3-yl]-3,4-dihydro-2H-isoquinolin-1-one]: 0.507 µM and 0.0586 µM.
The matching figures for `Cc1ccc(Cc2cncc(N3CCc4cc(Cl)ccc4C3=O)c2)cn1` [Example 206, 6-Chloro-2-[5-(6-methyl-pyridin-3-ylmethyl)-pyridin-3-yl]-3,4-dihydro-2H-isoquinolin-1-one]: 0.0068 µM and 0.0017 µM.
On to `CC1(C)c2cc(Cl)ccc2C(=O)N1c1cnccc1Cl` [Example 285, 5-Chloro-2-(4-chloro-pyridin-3-yl)-3,3-dimethyl-2,3-dihydro-isoindol-1-one], for which the concentration for a half-maximal effect (EC50) at human CYP11B1 was 0.356 µM; at human CYP11B2, 0.0076 µM.
The matching figures for `CCS(=O)(=O)NCc1cncc(N2C(=O)c3ccc(F)cc3C2(C)C)c1` [Example 388, Ethanesulfonic acid [5-(6-fluoro-1,1-dimethyl-3-oxo-1,3-dihydro-isoindol-2-yl)-pyridin-3-ylmethyl]-amide]: 3.97 µM and 0.272 µM.
On to `Cc1cncc(N2CCc3cc(Cl)ccc3C2=O)n1` [Example 38, 6-Chloro-2-(6-methyl-pyrazin-2-yl)-3,4-dihydro-2H-isoquinolin-1-one], for which the EC50 on human CYP11B1 was 8.39 µM; at human CYP11B2, 1.07 µM.
The matching figures for `CCC1c2cc(Cl)ccc2C(=O)N1c1cncc(CNS(=O)(=O)CC)c1` (single isomer, unassigned) [Example 390, Ethanesulfonic acid [5-((S or R)-5-chloro-3-ethyl-1-oxo-1,3-dihydro-isoindol-2-yl)-pyridin-3-ylmethyl]-amide]: 5.47 µM and 0.316 µM.
The matching figures for `CCC1c2cc(Cl)ccc2C(=O)N1c1cncc(F)c1` (single isomer, unassigned) [Example 310, (S or R)-5-Chloro-3-ethyl-2-(5-fluoro-pyridin-3-yl)-2,3-dihydro-isoindol-1-one]: 3.97 µM and 0.0165 µM.
For `CS(=O)(=O)NC1CCCc2c1cncc2N1Cc2cc(Cl)ccc2C1=O` (single isomer, unassigned) [Example 327, N-[(R or S)-4-(5-Chloro-1-oxo-1,3-dihydro-isoindol-2-yl)-5,6,7,8-tetrahydro-isoquinolin-8-yl]-methanesulfonamide], in that order: 10.7 µM and 1.36 µM.
With `CC(O)(c1cncc(N2CCc3cc(Cl)ccc3C2=O)c1)c1ccc(F)c(F)c1` (centres unmarked) [Example 36, 6-Chloro-2-{5-[1-(3,4-difluoro-phenyl)-1-hydroxy-ethyl]-pyridin-3-yl}-3,4-dihydro-2H-isoquinolin-1-one], the half-maximal effective concentration (EC50) at human CYP11B1 was determined as 0.188 µM; on human CYP11B2, 0.014 µM.
The matching figures for `O=C1c2ccc(Cl)cc2CCN1c1cncc(-c2cc(F)cc(F)c2)c1` [Example 233, 6-Chloro-2-[5-(3,5-difluoro-phenyl)-pyridin-3-yl]-3,4-dihydro-2H-isoquinolin-1-one]: 21.6 µM and 0.271 µM.
The matching figures for `CCS(=O)(=O)NCc1cncc(N2C(=O)c3ccc(Cl)cc3C2(C)C)c1` [Example 387, Ethanesulfonic acid [5-(6-chloro-1,1-dimethyl-3-oxo-1,3-dihydro-isoindol-2-yl)-pyridin-3-ylmethyl]-amide]: 2.84 µM and 0.0922 µM.
The matching figures for `O=C1c2ccc(Cl)cc2CCN1c1cncc(CN2CCC[C@@H]2CO)c1` [Example 150, 6-Chloro-2-[5-((R)-2-hydroxymethyl-pyrrolidin-1-ylmethyl)-pyridin-3-yl]-3,4-dihydro-2H-isoquinolin-1-one]: 5.32 µM and 0.227 µM.
On to `NC1CCCc2c1cncc2N1Cc2cc(Cl)ccc2C1=O` (centres unmarked) [Example 311, 2-(8-Amino-5,6,7,8-tetrahydro-isoquinolin-4-yl)-5-chloro-2,3-dihydro-isoindol-1-one], for which the half-maximal effective concentration (EC50) on human CYP11B1 is 6.48 µM; on human CYP11B2 it was 0.813 µM.
Take `CC(C)(O)c1c(F)cncc1N1CCc2cc(Cl)ccc2C1=O` [Example 70, 6-Chloro-2-[5-fluoro-4-(1-hydroxy-1-methyl-ethyl)-pyridin-3-yl]-3,4-dihydro-2H-isoquinolin-1-one]: the half-maximal effective concentration (EC50) turned out to be 0.392 µM on human CYP11B1 and 0.46 µM at human CYP11B2.
For `CC[C@@H]1c2cc(Cl)ccc2C(=O)N1c1cncc2c1CCC[C@@H]2NS(C)(=O)=O` (single isomer, unassigned) [Example 349, N-[(S or R)-4-((R or S)-5-Chloro-3-ethyl-1-oxo-1,3-dihydro-isoindol-2-yl)-5,6,7,8-tetrahydro-isoquinolin-8-yl]-methanesulfonamide], the EC50 on human CYP11B1 was found to be 15.1 µM; at human CYP11B2, 0.982 µM.
For `O=C(c1cncc(N2CCc3cc(Cl)ccc3C2=O)c1)N1CCOCC1` [Example 39, 6-Chloro-2-[5-(morpholine-4-carbonyl)-pyridin-3-yl]-3,4-dihydro-2H-isoquinolin-1-one], in that order: 10 µM and 1.09 µM.
On to `CCC1c2cc(Cl)ccc2C(=O)N1c1cncc(-c2ccnn2C)c1` (single isomer, unassigned) [Example 429, (S or R)-5-Chloro-3-ethyl-2-[5-(2-methyl-2H-pyrazol-3-yl)-pyridin-3-yl]-2,3-dihydro-isoindol-1-one], for which the results for the EC50 at human CYP11B1 and at human CYP11B2 were 0.0577 µM and 0.0043 µM, respectively.
The matching figures for `COC(=O)[C@@H]1CCCN1Cc1cncc(N2CCc3cc(Cl)ccc3C2=O)c1` [Example 84, (S)-1-[5-(6-Chloro-1-oxo-3,4-dihydro-1H-isoquinolin-2-yl)-pyridin-3-ylmethyl]-pyrrolidine-2-carboxylic acid methyl ester]: 4.83 µM and 0.225 µM.
For `CCC1c2ccc(Cl)cc2C(=O)N1c1cncc(F)c1` (single isomer, unassigned) [Example 308, (R or S)-6-Chloro-3-ethyl-2-(5-fluoro-pyridin-3-yl)-2,3-dihydro-isoindol-1-one], in that order: 26.3 µM and 0.38 µM.
The matching figures for `CC(O)c1cncc(N2C(=O)c3ccc(Cl)cc3C2(C)C)c1` (centres unmarked) [Example 132, 5-Chloro-2-[5-(1-hydroxy-ethyl)-pyridin-3-yl]-3,3-dimethyl-2,3-dihydro-isoindol-1-one]: 0.527 µM and 0.0378 µM.
For `CC[C@H]1c2cc(Cl)ccc2C(=O)N1c1cncc2c1CCC[C@@H]2NS(C)(=O)=O` (single isomer, unassigned) [Example 348, N-[(S or R)-4-((S or R)-5-Chloro-3-ethyl-1-oxo-1,3-dihydro-isoindol-2-yl)-5,6,7,8-tetrahydro-isoquinolin-8-yl]-methanesulfonamide], the EC50 at human CYP11B1 is 36.9 µM; on human CYP11B2, 2.83 µM.
Turning to `O=C1c2ccc(Cl)cc2CCN1c1cncc(CN2CCCC(F)(F)C2)c1` [Example 172, 6-Chloro-2-[5-(3,3-difluoro-piperidin-1-ylmethyl)-pyridin-3-yl]-3,4-dihydro-2H-isoquinolin-1-one], the half-maximal effective concentration (EC50) at human CYP11B1 worked out at 0.144 µM; on human CYP11B2, 0.0223 µM.
For `CC[C@@H]1c2cc(Cl)ccc2C(=O)N1c1cncc2c1CC[C@@H]2NC(C)=O` (single isomer, unassigned) [Example 342, (+)-N—[(S or R)-4-((R or S)-5-Chloro-3-ethyl-1-oxo-1,3-dihydro-isoindol-2-yl)-6,7-dihydro-5H-[2]pyrindin-7-yl]-acetamide], in that order: 0.0947 µM and 0.0151 µM.
The matching figures for `CCC(=O)N[C@H]1CCc2c1cncc2N1C(=O)c2ccc(Cl)cc2[C@@H]1C` (single isomer, unassigned) [Example 378, N-[(S or R)-4-((S or R)-5-Chloro-3-methyl-1-oxo-1,3-dihydro-isoindol-2-yl)-6,7-dihydro-5H-[2]pyrindin-7-yl]-propionamide]: 14.6 µM and 0.212 µM.

Usually EC50 stands for the concentration needed to bring the measured effect to its halfway point. Lower therefore signals greater potency.
